# Measured values published in patent US7786124B2, “Heterocyclic substituted pyridine compounds with CXCR3 antagonist activity” (Schering Corporation, priority 2006, dated 2010).
# Like-named read-outs stand apart in the source and are kept apart here.
# Target: T1, human CXCR3 (N-delta 4) (Homo sapiens, UniProt P49682)
# T1 construct: CD8 leader; Flag tag; expressed in transfected cells; membrane preparation
# T1 sequence (P49682 5-368 limits assumed): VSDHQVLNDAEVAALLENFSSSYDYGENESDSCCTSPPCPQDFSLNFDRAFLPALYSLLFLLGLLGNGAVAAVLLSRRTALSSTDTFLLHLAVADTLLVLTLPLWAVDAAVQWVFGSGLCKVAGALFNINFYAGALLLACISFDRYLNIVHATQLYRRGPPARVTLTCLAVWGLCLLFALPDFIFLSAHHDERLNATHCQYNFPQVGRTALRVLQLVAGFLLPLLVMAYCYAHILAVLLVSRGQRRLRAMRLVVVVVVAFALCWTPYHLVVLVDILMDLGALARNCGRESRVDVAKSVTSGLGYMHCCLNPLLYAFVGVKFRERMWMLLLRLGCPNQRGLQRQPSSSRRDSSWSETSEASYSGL
# Assay: Human CXCR3 (N-delta 4) scintillation proximity binding assay ([125I] IP-10 displacement)
# Excerpt: The inventive compounds can readily be evaluated to determine activity at The CXCR3 receptors by known methods, such as, for example, Development of Human CXCR3 (N-delta 4) Binding Assay.
# Cloning and Expression of Human CXCR3 (N-Delta 4):
# The DNA encoding human CXCR3 was cloned by PCR using human genomic DNA (Promega, Madison, Wis.) as a template. The PCR primers were designed based on the published sequence of human orphan receptor GPR9 (1) with incorporated restriction sites, a Kozak consensus sequence, CD8 leader and Flag tag. The PCR product was subcloned into the mammalian expression vector pME18Sneo, a derivative of the SR-alpha expression vector (designated as pME18Sneo-hCXCR3 (N-delta 4).
# IL-3-dependent mouse pro-B cells Ba/F3 were transfected by electroporation in 0.4 ml Dulbecco's PBS containing 4×10^6 cells with 20 μg of pME18Sneo-hCXCR3 (N-delta 4) plasmid DNA. Cells were pulsed at 400 Volts, 100 OHMs, 960 μFd. The transfected cells were under selection with 1 mg/ml G418 (Life Technologies, Gaithersburg, Md.). G418-resistant Ba/F3 clones were screened for CXCR3 expression by specific binding of [^125I] IP-10 (NEN Life Science Products, Boston, Mass.).
# Preparation of Ba/F3-hCXCR3 (N-Delta 4) Membranes
# Ba/F3 cells expressing human CXCR3 (N-delta 4) were pelleted and resuspended in the lysis buffer containing 10 mM HEPES, pH 7.5 and Complete® protease inhibitors (1 tablet per 100 ml) (Boehringer Mannheim, Indianapolis, Ind.) at a cell density of 20×10^6 cells per ml. After 5 minutes incubation on ice, cells were transferred to 4639 cell disruption bomb (Parr Instrument, Moline, Ill.) and applied with 1,500 psi of nitrogen for 30 minutes on ice. Large cellular debris was removed by centrifugation at 1,000×g. Cell membrane in the supernatant was sedimented at 100,000×g. The membrane was resuspended in the lysis buffer supplemented with 10% sucrose and stored at −80° C. Total protein concentration of the membrane was determined by BCA method from Pierce (Rockford, Ill.).
# Human CXCR3 (N-Delta 4) Scintillation Proximity Assay (SPA)
# For each assay point, 2 μg of membrane was preincubated for 1 hr with 300 μg wheat germ agglutinin (WGA) coated SPA beads (Amersham, Arlington Heights, Ill.) in the binding buffer (50 mM HEPES, 1 mM CaCl2, 5 mM MgCl2, 125 mM NaCl, 0.002% NaN3, 1.0% BSA) at room temperature. The beads were spun down, washed once, resuspended in the binding buffer and transferred to a 96-well Isoplate (Wallac, Gaithersburg, Md.). 25 pM of [^125I] IP-10 with tested compounds in a series of titration were added to start the reaction. After 3 hr reaction at room temperature, the amount of [^125I]; IP-10 bound to the SPA beads was determined with a Wallac 1450 Microbeta counter.
# [1] = Human CXCR3, Table 2, read-out: Ki
# [2] = human CXCR3, Table 1, read-out: Ki rating
Ki [1] [µM],Ki [2] [µM],"Ki (human CXCR3, read-out: Ki) [µM]",Compound
,0.025 to 0.1,,CC[C@H]1CN(c2ccc(-c3nnc(N)o3)nc2C)[C@H](C)CN1C1CCN(C(=O)c2ccc(Cl)c(F)c2)CC1 [Compound 13]
,0.025 to 0.1,,CC[C@H]1CN(c2ccc(-c3nnc(N)o3)nc2C)[C@H](C)CN1C1CCN(C(=O)c2ccc(Cl)cc2)CC1 [Compound 12]
,0.025 to 0.1,,CCNc1nnc(-c2ccc(N3C[C@H](CC)N(C4CCN(C(=O)c5ccc(Cl)cc5)CC4)C[C@H]3C)c(C)n2)o1 [Compound 11]
0.0003,< 0.025,,CC[C@H]1CN(c2ccc(-c3nnc(N)o3)nc2C)CCN1C1CCN(Cc2ccc(Cl)cc2)CC1 [Compound 14]
,< 0.025,0.0002,CCNc1nnc(-c2ccc(N3CCN(C4CCN(Cc5ccc(Cl)cc5)CC4)[C@@H](CC)C3)c(C)n2)o1 [Compound 1]
,< 0.025,,CC[C@H]1CN(c2ccc(-c3nnc[nH]3)nc2C)CCN1C1CCN(C(=O)c2ccc(Cl)c(F)c2)CC1 [Compound 6]

# The remaining lines, values behind:
Compound,Ki [1] [µM],Ki [2] [µM],"Ki (human CXCR3, read-out: Ki) [µM]"
CC[C@H]1CN(c2ccc(-c3nnc(N)o3)nc2C)CCN1C1CCN(Cc2ccc(OC(F)(F)F)cc2)CC1 [Compound 3],0.0005,< 0.025,
CCNc1nnc(-c2ccc(N3CCN(C4CCN(C(=O)c5ccc(F)c(F)c5)CC4)[C@@H](CC)C3)c(C)n2)o1 [Compound 8],,< 0.025,
CC[C@H]1CN(c2ccc(-c3nnc(N)o3)nc2C)CCN1C1CCN(C(=O)c2ccc(Cl)c(F)c2)CC1 [Compound 7],,< 0.025,
CCNc1nnc(-c2ccc(N3CCN(C4CCN(C(=O)c5ccc(Cl)cc5)CC4)[C@@H](CC)C3)c(C)n2)o1 [Compound 4],,< 0.025,
CCNc1nnc(-c2ccc(N3C[C@H](CC)N(C4CCN(C(=O)c5ccc(Cl)c(F)c5)CC4)C[C@H]3C)c(C)n2)o1 [Compound 10],,0.025 to 0.1,
CCNc1nnc(-c2ccc(N3CCN(C4CCN(C(=O)c5ccc(Cl)c(F)c5)CC4)[C@@H](CC)C3)c(C)n2)o1 [Compound 5],,< 0.025,
CC[C@H]1CN(c2ccc(-c3nnc(N)o3)nc2C)CCN1C1CCN(C(=O)c2ccc(F)c(F)c2)CC1 [Compound 9],,< 0.025,
CC[C@H]1CN(c2ccc(-c3nnc(N)o3)nc2C)CCN1C1CCN(C(=O)c2ccc(Cl)cc2)CC1 [Compound 15],0.0024,< 0.025,
CCNc1nnc(-c2ccc(N3C[C@H](CC)N(C4CCN(Cc5ccc(Cl)cc5)CC4)C[C@H]3C)c(C)n2)o1 [Compound 2],0.0004,< 0.025,
